These results are taken from BindingDB's records for doi:10.1021/jm8014537 (Pfizer, 2010).

The target of this series is CYP2D6 (Homo sapiens, UniProt P10635). As to the kind of experiment: Inhibition of CYP2D6 in human liver microsomes.
Sequence of CYP2D6 (P10635 whole entry): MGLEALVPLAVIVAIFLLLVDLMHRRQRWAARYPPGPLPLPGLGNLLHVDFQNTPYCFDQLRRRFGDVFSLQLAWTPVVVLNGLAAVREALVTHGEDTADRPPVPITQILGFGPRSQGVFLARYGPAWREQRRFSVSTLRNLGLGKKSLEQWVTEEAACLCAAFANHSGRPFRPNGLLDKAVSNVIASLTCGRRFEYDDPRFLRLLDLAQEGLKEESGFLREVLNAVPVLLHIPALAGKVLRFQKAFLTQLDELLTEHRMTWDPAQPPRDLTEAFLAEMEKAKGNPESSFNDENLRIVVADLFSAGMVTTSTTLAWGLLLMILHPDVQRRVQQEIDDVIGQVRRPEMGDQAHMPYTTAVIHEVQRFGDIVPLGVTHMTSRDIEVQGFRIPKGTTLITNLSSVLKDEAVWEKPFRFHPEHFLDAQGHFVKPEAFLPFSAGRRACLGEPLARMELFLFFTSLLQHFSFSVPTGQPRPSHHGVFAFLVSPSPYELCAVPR

`CCC(C#N)(CC)c1ccc(CCC2(C3CCCC3)CC(=O)C(Cc3nc4nc(C)cc(C)n4n3)C(=O)O2)cc1F` (configuration not stated) [2-[4-(2-{2-cyclopentyl-5-[(5,7-dimethyl[1,2,4]triazolo[1,5-a]pyrimidin-2-yl)methyl]-4-hydroxy-6-oxo-3,6-dihydro-2H-pyran-2-yl}ethyl)-2-fluorophenyl]-2-ethylbutanenitrile] yielded a half-inhibitory concentration (IC50) greater than 6 µM. As to `Cc1cc(C)n2nc(CC3C(=O)CC(CCc4ccc(C(C)(C)O)c(F)c4)(C4CCCC4)OC3=O)nc2n1` (configuration not stated) [6-cyclopentyl-3-[(5,7-dimethyl[1,2,4]triazolo[1,5-a]pyrimidin-2-yl)methyl]-6-{2-[3-fluoro-4-(1-hydroxy-1-methylethyl)phenyl]ethyl}-4-hydroxy-5,6-dihydro-2H-pyran-2-one], the IC50 is greater than 6 µM.
